{"source": "patent US20250339405A1", "about": "“a-SYNUCLEIN AGGREGATE BINDING AGENT AND IMAGING METHOD” (National Institutes for quantum and Radiological Science …, priority 2019, published 2025)", "key": {"α-synuclein aggregate [1]": {"molecular_target": "T1, α-synuclein aggregate (Homo sapiens, UniProt P37840)", "test": "Binding to α-synuclein aggregate versus tau aggregate (inventors' finding, no method given)"}, "α-synuclein lesions [2]": {"molecular_target": "T2, α-synuclein lesions (Mus musculus, UniProt O55042)", "T2 construct": "from tissue; host or cells: brain of C57BL/6 mice inoculated in the striatum with recombinant murine α-synuclein fibrils (made in E. coli)", "test": "Ex vivo imaging of α-synuclein fibril-injected model mouse brain", "type": "in vivo", "conditions": "1.66 mg/kg; brains collected 90 minutes after C05-05 or 120 minutes after BF-227", "experimental": "A model mouse at 6 weeks after the injection of the α-synuclein fiber solution was anesthetized with 1.5% (v/v) isoflurane in a manner similar to that described in “(Preparation of α-synuclein fibril-injected mouse model)” above, and C05-05 (1.66 mg/kg) or BF-227 (1.66 mg/kg) was intraperitoneally administered.\nThe brains were collected and frozen 90 minutes after the administration of C05-05 (or 120 minutes after the administration of BF-227), and frozen sections with the thickness of 20 μm were prepared in a cryostat (HM560). After mounting the sections using a mounting medium (VECTASHIELD H-1000), images of α-synuclein aggregate-enriched areas on the sections were obtained using a fluorescence microscope (DM4000).\nMoreover, the same sections were immersed and fixed overnight in a phosphate buffer solution containing 4% paraformaldehyde. The brain after fixation was washed under running water and then treated with an autoclave for the antigen retrieval. Immunohistochemical staining with an anti-phosphorylated α-synuclein monoclonal antibody (pS129, abcam, ab59264) (1:1000) was carried out, and after mounting the sections using a mounting medium (VECTASHIELD H-1000), images of the same areas were obtained using the fluorescence microscope (DM4000). FIG. 7(a) contains images showing the case where C05-05 was administered, and FIG. 7(b) is images showing the case where BF-227 was administered."}, "[3]": {"molecular_target": "T3, α-synuclein aggregate formed in the brain of the DLB patient (Homo sapiens, UniProt P37840)", "T3 construct": "Postfixed fresh frozen sections of the amygdala tissue of the DLB patient; from tissue; host or cells: post-mortem human DLB amygdala, frozen sections", "test": "In vitro fluorescence microscope measurement, DLB patient brain sections", "type": "binding", "conditions": "for binding to the α-synuclein aggregate formed in the brain of the DLB patient, reactivity relative to PBB3: 30 μM compound, 50% ethanol, 30 minutes, room temperature, amygdala sections", "description": "Postmortem human brains were obtained from autopsies carried out with respect to a dementia with Lewy bodies (DLB) and Alzheimer's disease (AD) patients.\nA frozen DLB tissue was sliced with a thickness of 20 μm in a cryostat (HM560, Carl Zeiss).\nPostfixed fresh frozen sections of the amygdala tissue of the DLB patient and formalin fixed, paraffin embedded sections of a deparaffinized middle frontal gyrus tissue of the AD patient were used. Thirty μM of each of the above compounds and brain sections were incubated in a 50% ethanol solution for 30 minutes at room temperature. The sections were then washed twice, i.e., washed with a 50% ethanol solution for 5 minutes and with ultrapure water for 3 minutes. After mounting the sections using a mounting medium (VECTASHIELD H-1000, Vector Laboratories), images of lesion-enriched areas on the sections were obtained using a fluorescence microscope (DM4000, Leica). Analysis software (Image J) was used to quantify the fluorescence of lesion-enriched and lesion-free (background) areas."}, "[4]": {"system": "aggregate of tau or amyloid-β formed in the brain of the AD patient", "test": "In vitro fluorescence microscope measurement, AD patient brain sections", "type": "binding, human", "conditions": "AD and DLB patient brain sections, 30 μM", "source_text": "Postmortem human brains were obtained from autopsies carried out with respect to a dementia with Lewy bodies (DLB) and Alzheimer's disease (AD) patients. Moreover, an AD brain tissue was fixed in 10% neutral buffered formalin, embedded in a paraffin block, and sliced with a thickness of 6 μm. Postfixed fresh frozen sections of the amygdala tissue of the DLB patient and formalin fixed, paraffin embedded sections of a deparaffinized middle frontal gyrus tissue of the AD patient were used. Thirty μM of each of the above compounds and brain sections were incubated in a 50% ethanol solution for 30 minutes at room temperature. The sections were then washed twice, i.e., washed with a 50% ethanol solution for 5 minutes and with ultrapure water for 3 minutes. After mounting the sections using a mounting medium ([sequence] H-1000, Vector Laboratories), images of lesion-enriched areas on the sections were obtained using a fluorescence microscope (DM4000, Leica). Analysis software (Image J) was used to quantify the fluorescence of lesion-enriched and lesion-free (background) areas."}, "α-synuclein lesions [5]": {"molecular_target": "T2, α-synuclein lesions", "test": "In vivo two-photon laser scanning fluorescence microscopy of α-synuclein fibril-injected model mouse", "conditions": "tail vein, 50 μl of 0.05% solution; 90 minutes after C05-05 or 30 minutes after PBB3", "experimental": "Note that the α-synuclein aggregate was inoculated into the striatum of the mouse with the following manner. First, hair on the head of 9-week-old C57BL/6 male mouse anesthetized with 1.5% (v/v) isoflurane was removed, and the scalp was disinfected with isodine, followed by application of xylocaine and incision in the scalp to expose the skull. Then, a hole was drilled in the skull at a position of 0.05 mm posterior to the bregma and 2 mm lateral to the midline, and 3 μl of an α-synuclein fiber solution (murine α-synuclein fiber (4 mg/ml) in saline) was injected into a position […] ventral to the brain surface using a glass pipette, and then the scalp was returned and sutured.\nA model mouse was anesthetized with 1.5% (v/v) isoflurane 6 weeks after the injection of the α-synuclein fiber solution, and a cranial window was provided according to the Seylaz-Tomita method (Tomita et al. J Cereb Blood Flow Metab 25, 858-67, 2005). The mouse was anesthetized with 1.5% (v/v) isoflurane 2 weeks after the generation of the cranial window, and 50 μl of a solution of DMSO/physiological saline water=1:1 containing 0.05% of C05-05 or PBB3 was administered via the tail vein. The mouse was fixed under a two-photon laser fluorescence microscope 90 minutes after administration of C05-05 or 30 minutes after administration of PBB3, and 100 μl of a saline solution containing 5 mM of Sulforhodamine 101 was administered intraperitoneally, followed by intravital two-photon fluorescence imaging at an excitation wavelength of 900 nm. The detection wavelengths for C05-05 and PBB3 were set at 500 nm to 550 nm, and detection wavelengths for Sulforhodamine 101 were set at 573 nm to 648 nm."}, "α-synuclein aggregate [6]": {"molecular_target": "T1, α-synuclein aggregate", "conditions": "background art, cited from earlier work"}}, "note": "Like-named read-outs stand apart in the source and are kept apart here.", "data": [{"compound": "CNc1ccc(/C=C/C=C/c2nc3ccc(OCC(O)C[18F])cc3s2)cn1", "note": "(centres unmarked) [1-(18)F-fluoro-3-(2-((1E,3E)-4-(6-(methylamino)pyridin-3-yl)buta-1,3-dienyl)benzo[d]thiazol-6-yloxy)propan-2-ol]", "values": [{"measurement": "binding selectivity for the α-synuclein aggregate compared with a tau aggregate", "setting": "α-synuclein aggregate [1]", "value": "higher binding selectivity for an aggregate of tau proteins than to an α-synuclein aggregate"}]}, {"compound": "CNc1ccc(/C=C/C=C/c2nc3ccc(OCC(O)CF)cc3s2)cn1", "note": "(centres unmarked) [1-fluoro-3-(2-((1E,3E)-4-(6-(methylamino)pyridin-3-yl)buta-1,3-dienyl)benzo[d]thiazol-6-yloxy)propan-2-ol]", "values": [{"measurement": "binding selectivity for the α-synuclein aggregate compared with a tau aggregate", "setting": "α-synuclein aggregate [1]", "value": "higher binding selectivity for an aggregate of tau proteins than to an α-synuclein aggregate"}]}, {"compound": "[11CH3]Nc1ccc(/C=C/C=C/c2nc3ccc(O)cc3s2)cn1", "note": "[2-((1E,3E)-4-(6-((11)C-methylamino)pyridin-3-yl)buta-1,3-dienyl)benzo[d]thiazol-6-ol]", "values": [{"measurement": "binding selectivity for the α-synuclein aggregate compared with a tau aggregate", "setting": "α-synuclein aggregate [1]", "value": "higher binding selectivity for an aggregate of tau proteins than to an α-synuclein aggregate"}]}, {"compound": "CN(C)c1ncc(/C=C/c2nc3ccc(OCCF)cc3o2)s1", "note": "[BF-227, 2-(2-[2-dimethylaminothiazol-5-yl]ethenyl)-6-5 (2-[fluoro]ethoxy)benzoxazole, reference compound]", "values": [{"measurement": "detection of α-synuclein lesions by ex vivo imaging", "setting": "α-synuclein lesions [2]", "value": "no lesion was detected"}, {"measurement": "binding to the α-synuclein aggregate relative to the compounds represented by the formula (I)", "setting": "[3]; 30 μM, DLB patient brain sections", "value": "weaker than the compounds represented by the formula (I)"}, {"measurement": "aggregate mainly bound", "setting": "[4]", "value": "mainly bound to the amyloid-β aggregate of AD"}]}, {"compound": "CNc1ccc(C#C/C=C/c2nc3ccc(O)cc3s2)c(F)n1", "note": "[C05-01, (E)-2-(4-(2-fluoro-6-(methylamino)pyridin-3-yl)but-1-en-3-ynyl)benzo[d]thiazol-6-ol]", "values": [{"measurement": "binding to the α-synuclein aggregate formed in the brain of the DLB patient, reactivity relative to PBB3", "setting": "[3]", "value": "reactivity equal to or greater than that of PBB3"}]}, {"compound": "CNc1ccc(C#C/C=C/c2nc3ccc(CN)cc3s2)cn1", "note": "[C05-02, (E)-5-(4-(6-(aminomethyl)benzo[d]thiazol-2-yl)but-3-en-1-ynyl)-N-methylpyridine-2-amine]", "values": [{"measurement": "binding to the α-synuclein aggregate formed in the brain of the DLB patient, reactivity relative to PBB3", "setting": "[3]", "value": "reactivity equal to or greater than that of PBB3"}]}, {"compound": "CNc1ccc(C#C/C=C/c2nc3ccc(O)cc3s2)cn1", "note": "[C05-03, (E)-2-(4-(6-(methylamino)pyridin-3-yl)but-1-en-3-ynyl)benzo[d]thiazol-6-ol]", "values": [{"measurement": "binding to the α-synuclein aggregate formed in the brain of the DLB patient, reactivity relative to PBB3", "setting": "[3]", "value": "reactivity equal to or greater than that of PBB3"}]}, {"compound": "CNc1ccc(C#C/C=C/c2nc3ccc(OC)cc3s2)c(F)n1", "note": "[C05-04]", "values": [{"measurement": "binding to the α-synuclein aggregate formed in the brain of the DLB patient, reactivity relative to PBB3", "setting": "[3]", "value": "reactivity equal to or greater than that of PBB3"}]}, {"compound": "CN(C)c1ccc(C#C/C=C/c2nc3ccc(O)cc3s2)cc1", "note": "[C05-08, (E)-2-(4-(4-(dimethylamino)phenyl)but-1-en-3-ynyl)benzo[d]thiazol-6-ol]", "values": [{"measurement": "binding to the α-synuclein aggregate formed in the brain of the DLB patient, reactivity relative to PBB3", "setting": "[3]", "value": "reactivity equal to or greater than that of PBB3"}]}, {"compound": "CNc1ccc(C#C/C=C/c2nc3ccc(O)cc3s2)cc1", "note": "[C05-09, (E)-2-(4-(4-(methylamino)phenyl)but-1-en-3-ynyl)benzo[d]thiazol-6-ol]", "values": [{"measurement": "binding to the α-synuclein aggregate formed in the brain of the DLB patient, reactivity relative to PBB3", "setting": "[3]", "value": "reactivity equal to or greater than that of PBB3"}]}, {"compound": "CNc1ccc(C#C/C=C/c2cc3cc(O)ccc3o2)c(F)n1", "note": "[C06-02]", "values": [{"measurement": "binding to the α-synuclein aggregate formed in the brain of the DLB patient, reactivity relative to PBB3", "setting": "[3]", "value": "reactivity equal to or greater than that of PBB3"}]}, {"compound": "CNc1ccc(/C=C/C=C/c2nc3ccc(O)cc3s2)cn1", "note": "[PBB3, 2-((1E,3E)-4-(6-(methylamino)pyridin-3-yl)buta-1,3-dienyl)benzo[d]thiazol-6-ol]", "values": [{"measurement": "binding selectivity for the α-synuclein aggregate compared with a tau aggregate", "setting": "α-synuclein aggregate [1]", "value": "lower binding selectivity for the α-synuclein aggregate as compared with its binding selectivity for a tau aggregate"}, {"measurement": "binding to the α-synuclein aggregate", "setting": "α-synuclein aggregate [1]", "value": "some degree of affinity"}, {"measurement": "binding selectivity for the α-synuclein aggregate compared with a tau aggregate", "setting": "α-synuclein aggregate [1]; listed as 2-((1E,3E)-4-(6-(methylamino)pyridin-3-yl)buta-1,3-dienyl)benzo[d]thiazol-6-ol", "value": "higher binding selectivity for an aggregate of tau proteins than to an α-synuclein aggregate"}, {"measurement": "detection of α-synuclein lesions by intravital two-photon fluorescence imaging", "setting": "α-synuclein lesions [5]", "value": "no lesion was detected"}]}, {"compound": "CN([11CH3])c1ncc(/C=C/c2nc3ccc(OCCF)cc3o2)s1", "note": "[[^11C]BF-227]", "values": [{"measurement": "binding selectivity for the α-synuclein aggregate", "setting": "α-synuclein aggregate [6]; binds to an amyloid-β aggregate", "value": "low"}, {"measurement": "binding affinity for the α-synuclein aggregate", "setting": "α-synuclein aggregate [6]", "value": "insufficient"}, {"measurement": "detection of α-synuclein lesions in patients by PET", "setting": "α-synuclein aggregate [6]", "value": "only in a subset of MSA patients"}]}]}
